Results published in the supplement of paper PMC11061612.

What was measured:
Carboplatin = compound: C1CC(C1)(C(=O)[O-])C(=O)[O-].N.N.[Pt+2] [Carboplatin]; details: max 10 µM
In short: (§1)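 Cancer cell lines were dosed for 72 hours (final DMSO typically 0.2%) after 24 hours at 37°C and 5% CO2 in 1536-well plates containing 7.5 μl DMEM/F12 or RPMI with 10% FBS. Viability came from CellTiter-Glo 2.0 luminescence, scaled between blank-well and DMSO-well means, and dose responses were fitted to a two-parameter logistic curve with a non-linear mixed effects model. The single-agent IC50 was obtained from this fit.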

AZD5363 = compound: C1CN(CCC1(C(=O)N[C@@H](CCO)C2=CC=C(C=C2)Cl)N)C3=NC=NC4=C3C=CN4 [AZD5363]; details: max 10 µM
In short: as §1

AZD1775 = compound: C=CCn1c(=O)c2cnc(Nc3ccc(N4CCN(C)CC4)cc3)nc2n1-c1cccc(C(C)(C)O)n1 [AZD1775]; details: max 3 µM
In short: as §1

Trametinib = compound: CC(=O)Nc1cccc(-n2c(=O)n(C3CC3)c(=O)c3c(Nc4ccc(I)cc4F)n(C)c(=O)c(C)c32)c1 [Trametinib]; details: max 1 µM
In short: as §1

Paclitaxel = compound: CC(=O)O[C@H]1C(=O)[C@@]2(C)[C@H]([C@H](OC(=O)c3ccccc3)[C@]3(O)C[C@H](OC(=O)[C@H](O)[C@@H](NC(=O)c4ccccc4)c4ccccc4)C(C)=C1C3(C)C)[C@]1(OC(C)=O)CO[C@@H]1C[C@@H]2O [Paclitaxel]; details: max 3 µM
In short: as §1

Palbociclib = compound: CC(=O)c1c(C)c2cnc(Nc3ccc(N4CCNCC4)cn3)nc2n(C2CCCC2)c1=O [Palbociclib]; details: max 10 µM
In short: as §1

AZD1390 = compound: CC(C)n1c(=O)n(C)c2cnc3cc(F)c(-c4ccc(OCCCN5CCCCC5)nc4)cc3c21 [AZD1390]; details: max 0.3 µM
In short: as §1

Venetoclax = compound: CC1(C)CCC(CN2CCN(c3ccc(C(=O)NS(=O)(=O)c4ccc(NCC5CCOCC5)c([N+](=O)[O-])c4)c(Oc4cnc5[nH]ccc5c4)c3)CC2)=C(c2ccc(Cl)cc2)C1 [Venetoclax]; details: max 1 µM
In short: as §1

Dasatinib = compound: CC1=C(C(=CC=C1)Cl)NC(=O)C2=CN=C(S2)NC3=CC(=NC(=N3)C)N4CCN(CC4)CCO [Dasatinib]; details: max 2 µM
In short: as §1

SG3199 = compound: CC1=CN2[C@@H](C1)C=NC3=CC(=C(C=C3C2=O)OC)OCCCCCOC4=C(C=C5C(=C4)N=C[C@@H]6CC(=CN6C5=O)C)OC [SG3199]; details: max 0.001 µM
In short: as §1

AZD2811 = compound: CCN(CCO)CCCOc1ccc2c(Nc3cc(CC(=O)Nc4cccc(F)c4)[nH]n3)ncnc2c1 [AZD2811]; details: max 1 µM
In short: as §1

SN-38 = compound: CCc1c2c(nc3ccc(O)cc13)-c1cc3c(c(=O)n1C2)COC(=O)[C@]3(O)CC [SN-38]; details: max 0.3 µM
In short: as §1

AZD0156 = compound: CN(C)CCCOc1ccc(-c2ccc3ncc4c(c3c2)n(C2CCOCC2)c(=O)n4C)cn1 [AZD0156]; details: max 3 µM
In short: as §1

AZD4320 = compound: CN(CC[C@H](CSC1=CC=CC=C1)NC2=C(C=C(C=C2)S(=O)(=O)NC(=O)C3=CC=C(C=C3)N4CCC(CC4)[C@H](C5=CC=CC=C5C6=CC=C(C=C6)Cl)O)S(=O)(=O)C(F)(F)F)CCO [AZD4320]; details: max 1 µM
In short: as §1

Alisertib = compound: COc1cc(Nc2ncc3c(n2)-c2ccc(Cl)cc2C(c2c(F)cccc2OC)=NC3)ccc1C(=O)O [Alisertib]; details: max 10 µM
In short: as §1

Etoposide = compound: COc1cc([C@@H]2c3cc4c(cc3[C@@H](O[C@@H]3O[C@@H]5CO[C@@H](C)O[C@H]5[C@H](O)[C@H]3O)[C@H]3COC(=O)[C@H]23)OCO4)cc(OC)c1O [Etoposide]; details: max 10 µM
In short: as §1

Gefitinib = compound: COc1cc2ncnc(Nc3ccc(F)c(Cl)c3)c2cc1OCCCN1CCOCC1 [Gefitinib]; details: max 10 µM
In short: as §1

Prexasertib = compound: COc1cccc(OCCCN)c1-c1cc(Nc2cnc(C#N)cn2)n[nH]1 [Prexasertib]; details: max 1 µM
In short: as §1

Doxorubicin = compound: COc1cccc2c1C(=O)c1c(O)c3c(c(O)c1C2=O)C[C@@](O)(C(=O)CO)C[C@@H]3O[C@H]1C[C@H](N)[C@H](O)[C@H](C)O1 [Doxorubicin]; details: max 1 µM
In short: as §1

AZD5153 = compound: COc1nnc2ccc(N3CCC(c4ccc(OCCN5CCN(C)C(=O)[C@H]5C)cc4)CC3)nn12 [AZD5153]; details: max 1 µM
In short: as §1

Lapatinib = compound: CS(=O)(=O)CCNCc1ccc(-c2ccc3ncnc(Nc4ccc(OCc5cccc(F)c5)c(Cl)c4)c3c2)o1 [Lapatinib]; details: max 10 µM
In short: as §1

AZD8186 = compound: C[C@@H](Nc1cc(F)cc(F)c1)c1cc(C(=O)N(C)C)cc2c(=O)cc(N3CCOCC3)oc12 [AZD8186]
In short: as §1

Crizotinib = compound: C[C@@H](Oc1cc(-c2cnn(C3CCNCC3)c2)cnc1N)c1c(Cl)ccc(F)c1Cl [Crizotinib]; details: max 10 µM
In short: as §1

Savolitinib = compound: C[C@@H](c1ccc2nccn2c1)n1nnc2ncc(-c3cnn(C)c3)nc21 [Savolitinib]; details: max 1 µM
In short: as §1

AZD6738 = compound: C[C@@H]1COCCN1C2=NC(=NC(=C2)C3(CC3)[S@](=N)(=O)C)C4=C5C=CNC5=NC=C4 [AZD6738]; details: max 10 µM
In short: as §1

AZD5991 = compound: Cc1c2c(nn1C)CSCc1cc(n(C)n1)CSc1cc(c3ccccc3c1)OCCCc1c(C(=O)O)n(C)c3c-2c(Cl)ccc13 [AZD5991]; details: max 1 µM
In short: as §1

AZD7648 = compound: Cc1cc2ncnn2cc1Nc1ncc2c(n1)n(C1CCOCC1)c(=O)n2C [AZD7648]; details: max 10 µM
In short: as §1

Taselisib = compound: Cc1nc(-c2cn3c(n2)-c2ccc(-c4cnn(C(C)(C)C(N)=O)c4)cc2OCC3)n(C(C)C)n1 [Taselisib]; details: max 10 µM
In short: as §1

Selumetinib = compound: Cn1cnc2c(F)c(Nc3ccc(Br)cc3Cl)c(C(=O)NOCCO)cc21 [Selumetinib]; details: max 10 µM
In short: as §1

SRA737 = compound: N#Cc1cnc(Nc2cc(NC[C@H]3CNCCO3)c(C(F)(F)F)cn2)cn1 [SRA737]; details: max 10 µM
In short: as §1

MK-2206 = compound: NC1(c2ccc(-c3nc4ccn5c(=O)[nH]nc5c4cc3-c3ccccc3)cc2)CCC1 [MK-2206]; details: max 10 µM
In short: as §1

Gemcitabine = compound: Nc1ccn([C@@H]2O[C@H](CO)[C@@H](O)C2(F)F)c(=O)n1 [Gemcitabine]; details: max 0.3 µM
In short: as §1

[1] = compound: O=C(Nc1ccc2[nH]nc(-c3ccncc3)c2c1)[C@@H]1CCN(CC(=O)N2CCN(c3ccc(-c4ncccn4)cc3)CC2)C1; details: max 5 µM
In short: as §1

Olaparib = compound: O=C(c1cc(Cc2n[nH]c(=O)c3ccccc23)ccc1F)N1CCN(C(=O)C2CC2)CC1 [Olaparib]; details: max 10 µM
In short: as §1

5-Fluorouracil = compound: O=c1[nH]cc(F)c(=O)[nH]1 [5-Fluorouracil]; details: max 20 µM
In short: as §1

Capivasertib = compound: C1CN(CCC1(C(=O)N[C@@H](CCO)C2=CC=C(C=C2)Cl)N)C3=NC=NC4=C3C=CN4 [Capivasertib]; details: max 10 µM
In short: as §1

Row | Cell Line | IC50, cell viability 72 h (Carboplatin) | IC50, cell viability 72 h (AZD5363) | IC50, cell viability 72 h (AZD1775) | IC50, cell viability 72 h (Trametinib) | IC50, cell viability 72 h (Paclitaxel) | IC50, cell viability 72 h (Palbociclib) | IC50, cell viability 72 h (AZD1390) | IC50, cell viability 72 h (Venetoclax) | IC50, cell viability 72 h (Dasatinib) | IC50, cell viability 72 h (SG3199) | IC50, cell viability 72 h (AZD2811) | IC50, cell viability 72 h (SN-38) | IC50, cell viability 72 h (AZD0156) | IC50, cell viability 72 h (AZD4320) | IC50, cell viability 72 h (Alisertib) | IC50, cell viability 72 h (Etoposide) | IC50, cell viability 72 h (Gefitinib) | IC50, cell viability 72 h (Prexasertib) | IC50, cell viability 72 h (Doxorubicin) | IC50, cell viability 72 h (AZD5153) | IC50, cell viability 72 h (Lapatinib) | IC50, cell viability 72 h (AZD8186; max 10 µM) | IC50, cell viability 72 h (Crizotinib) | IC50, cell viability 72 h (Savolitinib) | IC50, cell viability 72 h (AZD6738) | IC50, cell viability 72 h (AZD5991) | IC50, cell viability 72 h (AZD7648) | IC50, cell viability 72 h (Taselisib) | IC50, cell viability 72 h (Selumetinib) | IC50, cell viability 72 h (SRA737) | IC50, cell viability 72 h (MK-2206) | IC50, cell viability 72 h (Gemcitabine) | IC50, cell viability 72 h [1] | IC50, cell viability 72 h (Olaparib) | IC50, cell viability 72 h (5-Fluorouracil) | IC50, cell viability 72 h (Capivasertib) | IC50, cell viability 72 h (AZD8186; max 3 µM)
1 | COR-L279 (Small Cell Lung Carcinoma) | > 10 µM | 9.25 µM | 1.6 µM | > 1 µM | < 0.003 µM | > 10 µM | > 0.3 µM | > 1 µM | > 2 µM | > 0.001 µM | 0.093 µM | 0.00169 µM | > 3 µM | 0.198 µM | 0.952 µM | 0.843 µM | > 10 µM | 0.0979 µM | 0.0421 µM | 0.178 µM | 6.64 µM | 7.51 µM | 3.71 µM | > 1 µM | 7.38 µM | > 1 µM | > 10 µM | 2.13 µM | > 10 µM | > 10 µM | 3.15 µM | 0.0346 µM | > 5 µM | 3.43 µM | > 20 µM |  | 
2 | CW-2 (Colorectal Carcinoma) | > 10 µM | > 10 µM | 2.72 µM | > 1 µM | 1.59 µM | > 10 µM | > 0.3 µM | > 1 µM | > 2 µM | > 0.001 µM | > 1 µM | 0.15 µM | > 3 µM | > 1 µM | > 10 µM | > 10 µM | > 10 µM | > 1 µM | > 1 µM | 0.861 µM | > 10 µM | > 10 µM | > 10 µM | > 1 µM | > 10 µM | > 1 µM | > 10 µM | > 10 µM | > 10 µM | > 10 µM | > 10 µM | 0.246 µM | > 5 µM | > 10 µM | > 20 µM |  | 
3 | DMS-114 (Small Cell Lung Carcinoma) | > 10 µM | > 10 µM | > 3 µM | > 1 µM | 0.132 µM | > 10 µM | > 0.3 µM | > 1 µM | > 2 µM | > 0.001 µM | > 1 µM | 0.23 µM | > 3 µM | > 1 µM | > 10 µM | > 10 µM | > 10 µM | > 1 µM | > 1 µM | 0.688 µM | > 10 µM | > 10 µM | > 10 µM | > 1 µM | > 10 µM | 0.782 µM | > 10 µM | 5.19 µM | > 10 µM | > 10 µM | > 10 µM | > 0.3 µM | > 5 µM | > 10 µM | > 20 µM |  | 
4 | H9 (T-Cell Non-Hodgkin's Lymphoma) |  |  | 0.416 µM | 0.00271 µM |  | > 10 µM | > 0.3 µM | > 1 µM | > 2 µM | > 0.001 µM | 0.026 µM | 0.00662 µM | > 3 µM | 0.142 µM | 0.115 µM |  | 7.12 µM | 0.00726 µM | 0.0838 µM | 0.00623 µM | 9.54 µM |  | 2.36 µM | > 1 µM | 1.31 µM | 0.413 µM | > 10 µM | > 10 µM | 0.0536 µM |  | 0.818 µM |  |  | > 10 µM |  | 3.07 µM | > 3 µM
5 | IM-95 (Gastric Carcinoma) |  |  | > 3 µM | > 1 µM |  | > 10 µM | > 0.3 µM | > 1 µM | > 2 µM | > 0.001 µM | > 1 µM | > 0.3 µM | > 3 µM | 0.398 µM | > 10 µM |  | > 10 µM | > 1 µM | > 1 µM | > 1 µM | > 10 µM |  | > 10 µM | > 1 µM | > 10 µM | 0.276 µM | > 10 µM | 7.24 µM | > 10 µM |  | > 10 µM |  |  | > 10 µM |  | > 10 µM | > 3 µM
